Test results taken from ChEMBL document CHEMBL5465560, “Selectivity Literature for EUbOPEN Chemogenomic Library” (2024).

Tests used:
[1] = target: T1, Ankyrin repeat and protein kinase domain-containing protein 1 (Homo sapiens) (UniProt Q8NFD2); test: Selectivity interaction (Ambit KINOMEscan and KiNATiv profiling in Jurkat cells) EUB0000090b ANKK1; assay type: cell-based; settings: at 1 µM
T1 sequence (whole entry): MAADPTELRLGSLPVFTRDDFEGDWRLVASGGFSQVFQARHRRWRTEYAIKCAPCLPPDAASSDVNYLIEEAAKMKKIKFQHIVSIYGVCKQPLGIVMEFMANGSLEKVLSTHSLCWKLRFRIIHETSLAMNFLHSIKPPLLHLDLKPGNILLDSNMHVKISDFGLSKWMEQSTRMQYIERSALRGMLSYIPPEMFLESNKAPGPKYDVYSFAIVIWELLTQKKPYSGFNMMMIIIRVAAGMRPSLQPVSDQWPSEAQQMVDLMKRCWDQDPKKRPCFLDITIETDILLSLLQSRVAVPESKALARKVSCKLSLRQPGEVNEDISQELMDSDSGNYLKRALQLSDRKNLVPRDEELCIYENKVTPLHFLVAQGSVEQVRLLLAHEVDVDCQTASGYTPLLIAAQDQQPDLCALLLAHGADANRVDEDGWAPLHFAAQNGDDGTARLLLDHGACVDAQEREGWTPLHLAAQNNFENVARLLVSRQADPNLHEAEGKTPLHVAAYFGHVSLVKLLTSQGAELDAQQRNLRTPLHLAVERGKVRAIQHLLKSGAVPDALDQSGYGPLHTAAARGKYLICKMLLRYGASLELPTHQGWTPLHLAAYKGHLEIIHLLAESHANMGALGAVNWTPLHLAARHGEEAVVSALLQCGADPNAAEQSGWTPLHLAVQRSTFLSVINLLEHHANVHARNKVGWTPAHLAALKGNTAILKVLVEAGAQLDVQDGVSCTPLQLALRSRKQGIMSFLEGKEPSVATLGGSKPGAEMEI

[2] = target: Ribosomal protein S6 kinase alpha-5 (Homo sapiens) (UniProt O75582); test: Selectivity interaction (KinomeScan (DiscoverX)) EUB0001079a RPS6KA5; settings: at 1 µM
Chain of Ribosomal protein S6 kinase alpha-5 (Homo sapiens) (O75582 whole entry, looked up): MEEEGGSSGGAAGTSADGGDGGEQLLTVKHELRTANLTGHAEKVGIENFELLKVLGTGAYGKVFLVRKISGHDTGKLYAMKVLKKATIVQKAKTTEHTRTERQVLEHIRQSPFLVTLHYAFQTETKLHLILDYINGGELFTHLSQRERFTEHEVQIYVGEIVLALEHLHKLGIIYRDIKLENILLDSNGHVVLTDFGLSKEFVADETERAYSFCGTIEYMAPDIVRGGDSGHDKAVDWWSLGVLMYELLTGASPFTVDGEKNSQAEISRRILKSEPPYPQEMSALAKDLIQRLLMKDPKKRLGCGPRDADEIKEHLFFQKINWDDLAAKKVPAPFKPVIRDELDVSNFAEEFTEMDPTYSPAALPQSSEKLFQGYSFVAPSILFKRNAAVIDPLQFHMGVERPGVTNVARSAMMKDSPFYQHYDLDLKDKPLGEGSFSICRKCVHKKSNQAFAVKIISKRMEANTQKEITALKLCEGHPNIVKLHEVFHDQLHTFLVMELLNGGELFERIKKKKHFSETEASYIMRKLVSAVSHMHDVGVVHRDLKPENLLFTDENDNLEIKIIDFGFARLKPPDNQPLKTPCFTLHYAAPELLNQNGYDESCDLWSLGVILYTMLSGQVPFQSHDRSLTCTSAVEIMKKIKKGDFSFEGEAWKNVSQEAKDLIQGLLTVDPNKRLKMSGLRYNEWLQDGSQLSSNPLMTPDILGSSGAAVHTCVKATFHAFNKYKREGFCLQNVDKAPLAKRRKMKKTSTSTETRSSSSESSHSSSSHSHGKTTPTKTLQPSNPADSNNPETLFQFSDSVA

[3] = target: T2, Mitogen-activated protein kinase kinase kinase 6 (Homo sapiens) (UniProt O95382); test: Selectivity interaction (KinomeScan (DiscoverX)) EUB0001079a MAP3K6; settings: at 1 µM
T2 sequence (whole entry): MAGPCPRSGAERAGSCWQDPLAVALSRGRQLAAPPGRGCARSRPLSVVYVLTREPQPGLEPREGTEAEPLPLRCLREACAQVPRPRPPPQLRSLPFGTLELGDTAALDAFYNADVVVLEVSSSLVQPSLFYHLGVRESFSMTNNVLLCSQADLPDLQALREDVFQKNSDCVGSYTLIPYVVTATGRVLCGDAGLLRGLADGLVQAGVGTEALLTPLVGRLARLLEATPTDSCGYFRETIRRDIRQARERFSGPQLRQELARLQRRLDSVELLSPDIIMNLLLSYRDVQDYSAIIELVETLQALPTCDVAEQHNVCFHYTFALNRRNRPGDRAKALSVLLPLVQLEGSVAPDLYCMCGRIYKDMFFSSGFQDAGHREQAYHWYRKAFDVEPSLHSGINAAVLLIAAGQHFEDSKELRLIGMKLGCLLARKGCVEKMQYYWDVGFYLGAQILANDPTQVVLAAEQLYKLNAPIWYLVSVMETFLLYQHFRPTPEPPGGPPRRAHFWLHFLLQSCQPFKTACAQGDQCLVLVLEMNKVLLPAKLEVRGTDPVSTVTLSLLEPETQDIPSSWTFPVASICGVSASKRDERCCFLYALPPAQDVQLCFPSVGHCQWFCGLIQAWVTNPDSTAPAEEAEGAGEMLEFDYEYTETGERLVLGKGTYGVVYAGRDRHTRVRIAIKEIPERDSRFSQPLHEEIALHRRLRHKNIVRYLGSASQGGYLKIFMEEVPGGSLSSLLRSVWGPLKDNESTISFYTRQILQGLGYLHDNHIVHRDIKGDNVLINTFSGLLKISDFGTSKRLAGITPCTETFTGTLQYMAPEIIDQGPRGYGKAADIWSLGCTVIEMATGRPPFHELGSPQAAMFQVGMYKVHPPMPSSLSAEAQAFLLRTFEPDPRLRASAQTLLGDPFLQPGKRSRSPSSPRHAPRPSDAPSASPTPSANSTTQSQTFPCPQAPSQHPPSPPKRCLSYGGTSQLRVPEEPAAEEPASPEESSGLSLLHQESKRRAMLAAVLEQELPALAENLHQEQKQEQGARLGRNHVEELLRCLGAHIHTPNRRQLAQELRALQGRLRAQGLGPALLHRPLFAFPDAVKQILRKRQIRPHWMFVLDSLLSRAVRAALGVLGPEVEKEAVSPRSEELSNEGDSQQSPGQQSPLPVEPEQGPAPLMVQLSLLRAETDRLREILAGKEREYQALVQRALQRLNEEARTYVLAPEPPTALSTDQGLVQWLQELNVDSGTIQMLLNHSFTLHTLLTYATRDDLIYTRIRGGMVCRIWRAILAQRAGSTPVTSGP

[4] = target: T3, Receptor tyrosine-protein kinase erbB-4 (Homo sapiens, UniProt Q15303); test: Selectivity interaction (KinomeScan (DiscoverX)) EUB0000618a ERBB4; settings: at 10 µM
T3 sequence (Q15303 whole entry): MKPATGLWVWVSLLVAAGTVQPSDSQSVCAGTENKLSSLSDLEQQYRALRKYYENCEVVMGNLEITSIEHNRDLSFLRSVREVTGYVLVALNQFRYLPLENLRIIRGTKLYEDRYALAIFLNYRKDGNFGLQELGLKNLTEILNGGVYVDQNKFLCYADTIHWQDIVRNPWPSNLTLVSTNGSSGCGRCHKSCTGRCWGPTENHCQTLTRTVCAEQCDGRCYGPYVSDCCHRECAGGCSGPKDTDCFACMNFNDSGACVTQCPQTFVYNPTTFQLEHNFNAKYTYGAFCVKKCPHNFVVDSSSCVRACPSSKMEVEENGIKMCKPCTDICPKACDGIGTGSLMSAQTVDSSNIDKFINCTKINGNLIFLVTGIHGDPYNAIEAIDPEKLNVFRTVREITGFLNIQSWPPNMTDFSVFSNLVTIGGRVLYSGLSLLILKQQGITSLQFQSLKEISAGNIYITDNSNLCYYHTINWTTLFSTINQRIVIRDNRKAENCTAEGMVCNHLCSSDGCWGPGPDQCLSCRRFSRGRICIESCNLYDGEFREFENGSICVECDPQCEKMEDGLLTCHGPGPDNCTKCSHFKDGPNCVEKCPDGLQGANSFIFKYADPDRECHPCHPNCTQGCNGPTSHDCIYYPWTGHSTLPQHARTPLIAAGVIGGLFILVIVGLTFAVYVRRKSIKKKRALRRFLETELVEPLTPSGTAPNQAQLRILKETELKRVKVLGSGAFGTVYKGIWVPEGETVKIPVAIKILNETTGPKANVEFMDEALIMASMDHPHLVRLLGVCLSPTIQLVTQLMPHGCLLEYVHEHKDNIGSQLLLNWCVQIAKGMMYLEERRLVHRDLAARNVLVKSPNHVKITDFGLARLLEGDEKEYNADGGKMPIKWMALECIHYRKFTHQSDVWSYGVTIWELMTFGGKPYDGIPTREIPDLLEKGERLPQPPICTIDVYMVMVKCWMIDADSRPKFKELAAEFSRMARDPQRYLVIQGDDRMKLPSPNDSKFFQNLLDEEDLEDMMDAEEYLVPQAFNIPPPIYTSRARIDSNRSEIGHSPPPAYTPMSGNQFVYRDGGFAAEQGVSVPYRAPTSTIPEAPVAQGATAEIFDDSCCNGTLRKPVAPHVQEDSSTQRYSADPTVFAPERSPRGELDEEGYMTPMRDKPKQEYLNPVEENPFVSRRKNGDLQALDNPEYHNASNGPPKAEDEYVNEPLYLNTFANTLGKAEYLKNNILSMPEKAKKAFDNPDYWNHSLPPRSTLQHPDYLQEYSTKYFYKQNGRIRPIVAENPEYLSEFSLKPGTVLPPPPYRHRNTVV

[5] = target: T3, Receptor tyrosine-protein kinase erbB-4; test: Selectivity interaction (SelectScreen profiling (Invitrogen)) EUB0000607a ERBB4; settings: at 2 µM
[6] = target: Dual specificity protein kinase CLK4 (Homo sapiens, UniProt Q9HAZ1); test: Selectivity interaction (KinomeScan (DiscoverX)) EUB0001619a CLK4; settings: at 1 µM
Chain of Dual specificity protein kinase CLK4 (Q9HAZ1 whole entry, looked up): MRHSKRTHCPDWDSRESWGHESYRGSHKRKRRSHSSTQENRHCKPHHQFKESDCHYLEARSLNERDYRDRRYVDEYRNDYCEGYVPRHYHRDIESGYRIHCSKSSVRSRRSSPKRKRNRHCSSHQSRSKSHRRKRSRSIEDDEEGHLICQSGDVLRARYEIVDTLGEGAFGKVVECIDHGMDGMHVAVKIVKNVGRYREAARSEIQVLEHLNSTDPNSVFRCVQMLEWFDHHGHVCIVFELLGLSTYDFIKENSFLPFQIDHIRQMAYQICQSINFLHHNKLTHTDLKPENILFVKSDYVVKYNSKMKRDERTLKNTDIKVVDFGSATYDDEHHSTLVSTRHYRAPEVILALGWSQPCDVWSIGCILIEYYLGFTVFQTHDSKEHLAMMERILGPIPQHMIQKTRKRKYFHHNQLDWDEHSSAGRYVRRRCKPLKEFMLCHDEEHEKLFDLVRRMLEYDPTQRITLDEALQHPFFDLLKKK

[7] = target: Serine/threonine-protein kinase 25 (Homo sapiens) (UniProt O00506); test: Selectivity interaction (KinomeScan (DiscoverX)) EUB0000045b STK25
Chain of Serine/threonine-protein kinase 25 (Homo sapiens) (O00506 whole entry, looked up): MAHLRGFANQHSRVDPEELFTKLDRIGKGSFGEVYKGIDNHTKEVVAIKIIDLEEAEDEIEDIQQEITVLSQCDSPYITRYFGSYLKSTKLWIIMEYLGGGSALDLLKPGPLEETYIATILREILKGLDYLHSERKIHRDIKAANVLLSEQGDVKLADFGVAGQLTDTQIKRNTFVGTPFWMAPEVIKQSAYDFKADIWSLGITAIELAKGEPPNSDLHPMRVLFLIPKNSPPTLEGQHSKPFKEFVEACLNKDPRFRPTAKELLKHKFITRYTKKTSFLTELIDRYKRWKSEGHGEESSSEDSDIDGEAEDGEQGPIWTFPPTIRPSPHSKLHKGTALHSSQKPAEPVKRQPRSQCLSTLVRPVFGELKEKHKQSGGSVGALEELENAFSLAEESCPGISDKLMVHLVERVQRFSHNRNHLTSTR

Q: CN(C)C/C=C/C(=O)Nc1ccc(C(=O)N2CCCC(Nc3ncc(Cl)c(-c4c[nH]c5ccccc45)n3)C2)cc1 (stereo not drawn) was tested. Which % of control [1] did it give?
A: 91%

Q: Which % of control [2] does the source give for Nc1cnc(N2CCc3cc(S(=O)(=O)Nc4c(F)cc(Cl)cc4F)cc(N4CCCC4=O)c32)nc1 [TP-020n] here?
A: 100%

Q: What about the % of control [3] of the same molecule?
A: 75%

Q: For O[C@H]1CC[C@H](Nc2ncc3nc(Nc4c(F)cc(F)cc4F)n([C@H]4CCOC4)c3n2)CC1, which % of control [4] is on record?
A: 56%

Q: CNC(=O)Nc1ccc(-c2nc(N3CC4CCC(C3)O4)c3cnn(C4CCC5(CC4)OCCO5)c3n2)cc1 was tested. Which % of inhibition [5] did it give?
A: 3%

Q: Which % of control [6] does the source give for N#Cc1cccc(-c2c[nH]c3ncnc(N4CCOCC4)c23)c1 here?
A: 38%

Q: Which results are given for C=CC(=O)Nc1cc(-n2c(=O)ccc3cnc4ccc(-c5ccc(NS(C)(=O)=O)cc5)cc4c32)ccc1C?
A: % of control ([7]; at 1 µM): 100%; % of control ([7]; at 10 µM): 65%
